Experiments:
Experiment in all cases: Cytotoxicity assay (Version 2, automated, AC50) with/without neutrophil elastase
Details in all cases: Version 2, activity concentration at −50%
[1] = tested on: SUM149; assay type: cell-based
Procedure: (§1) Cultivation of cells was performed according to standard procedures with the media recommended by the provider. The cells, in a total volume of 100 μL, were seeded in a 96-well plate with a white bottom (#3610). After a 24 h incubation period at 37° C. and […], the medium was exchanged by adding 90 μL fresh medium. The treatment started by adding the test compound in 10 μL of culture medium to the cells in triplicates. Concentrations ranging from 10^−5 M to 10^−13 M were chosen. Two identically treated sets of samples were prepared. One set was treated with the test compound alone, whereas to the second set the compound and 10 nM elastase was added followed by a 72 h incubation period at 37° C. and […]. The proliferation was detected using the MTT assay (ATCC). At the end of the incubation period the MTT reagent was added to all samples for 4 h. Lysis of the cells followed by addition of the detergent was done overnight. The formed dye was detected at 570 nm. The proliferation of untreated but otherwise identically handled cells was define as the 100% value.
(§2) The cytotoxicity assay (Version 2) was performed as described above. Some changes were applied as the assays were performed in an automated fashion and the IC50 values determination was changed. Here the change in metabolic activity of the cells, in percent, was calculated by normalization of the measured values to the absorbance values of medium containing wells without cells (═−100%) and the absorbance of the DMSO-treated cells (═0%). AC50 values (activity concentration at −50%) were determined by means of a 4 parameter Hill-fit using GeneData Screener software.

[2] = tested on: NCI H292; assay type: cell-based, human
Procedure: as §1, §2

[3] = tested on: HT29; assay type: cell-based, human
Procedure: as §1, §2

[4] = tested on: 786-O; assay type: cell-based, human
Procedure: as §1, §2

[5] = SUM149, with (+) neutrophil elastase
[6] = SUM149, without (−) neutrophil elastase
[7] = NCI H292, with (+) neutrophil elastase
[8] = NCI H292, without (−) neutrophil elastase
[9] = HT29, with (+) neutrophil elastase
[10] = HT29, without (−) neutrophil elastase
[11] = without (−) neutrophil elastase

Compound	AC50 [1, 5] [nM]	AC50 [1, 6] [nM]	AC50 [2, 7] [nM]	AC50 [2, 8] [nM]	AC50 [3, 9] [nM]	AC50 [3, 10] [nM]	AC50 ([4]; with (+) neutrophil elastase) [nM]	AC50 [4, 11] [nM]
CCCNC(=O)Nc1cccc(S(=O)(=O)Nc2cccc([C@@H](CC(=O)O)NC(=O)Nc3ccc(NC(=O)NCCOCCOCCOCCC(=O)N[C@@H](CC(=O)O)C(=O)N4CCC[C@H]4C(=O)N[C@@H](C(=O)N=[S@@](C)(=O)Cc4cc5cc(c4)O[C@@H](C)CCOc4cc(F)ccc4-c4nc(ncc4F)N5)C(C)C)cc3)c2)c1 (relative stereo) [Compound 39, N-(14-{4-[({(1R)-2-carboxy-1-[3-({3-[(propylcarbamoyl)amino]benzene-1-sulfonyl}amino)phenyl]ethyl}carbamoyl)amino]anilino}-14-oxo-4,7,10-trioxa-13-azatetradecanan-1-oyl)-L-alpha-aspartyl-L-prolyl-N—[(R*)—{[(4R*)-15,19-difluoro-4-methyl-3,4-dihydro-2H,11H-12,16-(azeno)-10,6-(metheno)-1,5,11,13-benzodioxadiazacyclooctadecin-8-yl]methyl}(methyl)oxo-lambda^6-sulfanylidene]-D-valinamide]	≤ 10	100 to 1000	≤ 10	100 to 1000	≤ 10	100 to 1000	≤ 10	100 to 1000
CCCNC(=O)Nc1cccc(S(=O)(=O)Nc2cccc([C@@H](CC(=O)O)NC(=O)Nc3ccc(NC(=O)NCCOCCOCCOCCC(=O)N[C@@H](CC(=O)O)C(=O)N4CCC[C@H]4C(=O)N[C@H](C(=O)N=[S@](C)(=O)Cc4cc5nc(c4)O[C@H](C)CCCCOc4cc(F)ccc4-c4cc(ncc4F)N5)C(C)C)cc3)c2)c1 (relative stereo) [Compound 56]	11 to 100	100 to 1000	11 to 100	> 1000	11 to 100	> 1000	11 to 100	> 1000
CCCNC(=O)Nc1cccc(S(=O)(=O)Nc2cccc([C@@H](CC(=O)O)NC(=O)Nc3ccc(NC(=O)NCCOCCOCCOCCC(=O)NCCNC(=O)CC[C@H](NC(=O)CCCC(=O)NCCN(C)CCN(C)CCN(C)CC(=O)N[C@@H](CC(N)=O)C(=O)N4CCC[C@H]4C(=O)N[C@H](C(=O)N=[S@@](C)(=O)Cc4cc5cc(c4)OCCCCOc4cc(F)ccc4-c4nc(ncc4F)N5)C(C)C)C(=O)NCCNC(=O)CCOCCOCCOCCNC(=O)Nc4ccc(NC(=O)N[C@H](CC(=O)O)c5cccc(NS(=O)(=O)c6cccc(NC(=O)NCCC)c6)c5)cc4)cc3)c2)c1 [Compound 25]	11 to 100	100 to 1000	11 to 100		11 to 100	> 1000	11 to 100	> 1000
CCCNC(=O)Nc1cccc(S(=O)(=O)Nc2cccc([C@@H](CC(=O)O)NC(=O)Nc3ccc(NC(=O)NCCOCCOCCOCCC(=O)N[C@@H](CC(=O)O)C(=O)N4CCC[C@H]4C(=O)N[C@H](C(=O)N=S(C)(=O)Cc4cc5cc(c4)OCCCCOc4cc(F)ccc4-c4nc(ncc4F)N5)C(C)C)cc3)c2)c1 (relative stereo) [Compound 36]	11 to 100	100 to 1000	11 to 100	100 to 1000	11 to 100	100 to 1000	11 to 100	100 to 1000
disodium 1-{(2S)-2-(carboxylatomethyl)-17-[4-({[(1R)-2-carboxylato-1-{3-[({3-[(propylcarbamoyl)amino]phenyl}sulfonyl)amino]phenyl}ethyl]carbamoyl}amino)anilino]-4,17-dioxo-7,10,13-trioxa-3,16-diazaheptadecan-1-oyl}-L-prolyl-N—[(R*)—{[15,19-difluoro-3,4-dihydro-2H,11H-10,6-(azeno)-12,16-(metheno)-1,5,11,13-benzodioxadiazacyclooctadecin-8-yl]methyl}(methyl)oxido-lambda^6-sulfanylidene]-L-valinamide [Compound 42]	≤ 10	100 to 1000	≤ 10	100 to 1000	≤ 10	> 1000	≤ 10	100 to 1000
CCCNC(=O)Nc1cccc(S(=O)(=O)Nc2cccc([C@H](CC(=O)O)NC(=O)Nc3ccc(NC(=O)NCCN(C)CCN(C)CCN(C)CC(=O)N[C@@H](CC(N)=O)C(=O)N4CCC[C@H]4C(=O)N[C@H](C(=O)N=S(C)(=O)Cc4cc5nc(c4)OCCCOc4cc(F)ccc4-c4cc(ncc4F)N5)C(C)C)cc3)c2)c1 (mixture of isomers) [Compound 23]	≤ 10	100 to 1000	≤ 10	100 to 1000	≤ 10	100 to 1000	≤ 10	100 to 1000
CCCNC(=O)Nc1cccc(S(=O)(=O)Nc2cccc([C@@H](CC(=O)O)NC(=O)Nc3ccc(NC(=O)NCCOCCOCCOCCC(=O)N[C@@H](CC(=O)OCCCCN(C)C)C(=O)N4CCC[C@H]4C(=O)N[C@H](C(=O)N=S(C)(=O)Cc4cc5cc(c4)OCCCCOc4cc(F)ccc4-c4nc(ncc4F)N5)C(C)C)cc3)c2)c1 (single isomer, unassigned) [Compound 21]	11 to 100	100 to 1000	11 to 100	100 to 1000	11 to 100	> 1000	11 to 100	> 1000
CCCNC(=O)Nc1cccc(S(=O)(=O)Nc2cccc([C@H](CC(=O)O)NC(=O)Nc3ccc(NC(=O)NCCOCCOCCOCCC(=O)N[C@@H](CCCCNC(=O)CCOCCOCCOCCNC(=O)Nc4ccc(NC(=O)N[C@H](CC(=O)O)c5cccc(NS(=O)(=O)c6cccc(NC(=O)NCCC)c6)c5)cc4)C(=O)NCCOCCOCCOCCC(=O)N[C@@H](CC(=O)O)C(=O)N4CCC[C@H]4C(=O)N[C@H](C(=O)N=S(C)(=O)Cc4cc5nc(c4)OCCCOc4cc(F)ccc4-c4cc(ncc4F)N5)C(C)C)cc3)c2)c1 (relative stereo) [Compound 32]	≤ 10	100 to 1000	≤ 10	100 to 1000	≤ 10	> 1000	≤ 10	100 to 1000
CCCNC(=O)Nc1cccc(S(=O)(=O)Nc2cccc([C@@H](CC(=O)O)NC(=O)Nc3ccc(NC(=O)NCCOCCOCCOCCC(=O)N[C@@H](CC(=O)O)C(=O)N4CCC[C@H]4C(=O)N[C@H](C(=O)N=[S@@](C)(=O)Cc4cc5nc(c4)OCCCOc4cc(F)ccc4-c4cc(ncc4F)N5)C(C)C)cc3)c2)c1 (racemic) [Compound 37, N-(14-{4-[({(1R)-2-carboxy-1-[3-({3-[(propylcarbamoyl)amino]benzene-1-sulfonyl}amino)phenyl]ethyl}carbamoyl)amino]anilino}-14-oxo-4,7,10-trioxa-13-azatetradecanan-1-oyl)-L-alpha-aspartyl-L-prolyl-N—[(RS)—{[15,19-difluoro-3,4-dihydro-2H,11H-10,6-(azeno)-12,16-(metheno)-1,5,11,13-benzodioxadiazacyclooctadecin-8-yl]methyl}(methyl)oxo-lambda^6-sulfanylidene]-L-valinamide]	≤ 10	100 to 1000	≤ 10	100 to 1000	≤ 10	100 to 1000	≤ 10	100 to 1000
CCCNC(=O)Nc1cccc(S(=O)(=O)Nc2cccc([C@@H](CC(=O)O)NC(=O)Nc3ccc(NC(=O)NCCOCCOCCOCCC(=O)N[C@@H](CC(=O)O)C(=O)N4CCC[C@H]4C(=O)N[C@H](C(=O)N=[S@](C)(=O)Cc4cc5nc(c4)O[C@@H](C)CCCCOc4cc(F)ccc4-c4cc(ncc4F)N5)C(C)C)cc3)c2)c1 (relative stereo) [Compound 55]	≤ 10	> 1000	11 to 100	> 1000	11 to 100	> 1000	11 to 100	> 1000
CCCNC(=O)Nc1cccc(S(=O)(=O)Nc2cccc([C@@H](CC(=O)O)NC(=O)Nc3ccc(NC(=O)NCCN(C)CCN(C)CCN(C)CC(=O)N[C@@H](CC(N)=O)C(=O)N4CCC[C@H]4C(=O)N[C@H](C(=O)N=[S@@](C)(=O)Cc4cc5cc(c4)O[C@@H](C)CCOc4cc(F)ccc4-c4nc(ncc4F)N5)C(C)C)cc3)c2)c1 (single isomer, unassigned) [Compound 24]	≤ 10	100 to 1000	≤ 10	100 to 1000	≤ 10	100 to 1000	≤ 10	100 to 1000

— patent US20240408222A1, “COMPOUNDS, PHARMACEUTICAL COMPOSITIONS, AND METHODS FOR THE TREATMENT, PREVENTION, OR MANAGEMENT OF HYPERPRO[…]” (VINCERX PHARMA GMBH, priority 2021, published 2024)
